Test results as given in ChEMBL document CHEMBL1134864, “Synthesis and biological evaluation of 9-substituted tetracycline derivatives” (2002).
≈ marks a conversion by molar mass, not a printed value.

Assays:
Type in all cases: functional
Staphylococcus aureus [1] = test: Minimum inhibition concentration against Methicillin resistant Staphylococcus aureus
Enterococcus faecalis = test: Minimum inhibition concentration against Enterococcus faecalis
Staphylococcus aureus [2] = test: Minimum inhibition concentration against Staphylococcus aureus

SMILES: C[C@H]1c2ccc(-c3ccc([N+](=O)[O-])cc3)c(O)c2C(=O)C2=C(O)[C@]3(O)C(O)=C(C(N)=O)C(=O)[C@@H](N(C)C)C3[C@@H](O)C21 (stereo partly specified)
- MIC (Staphylococcus aureus [1]): 0.39 µg/mL (≈ 0.69 µM)
- MIC (Enterococcus faecalis): 0.78 µg/mL (≈ 1.38 µM)
- MIC (Staphylococcus aureus [2]): 3.12 µg/mL (≈ 5.52 µM)

SMILES: C=Cc1ccc2c(c1O)C(=O)C1=C(O)[C@]3(O)C(O)=C(C(N)=O)C(=O)[C@@H](N(C)C)C3[C@@H](O)C1[C@H]2C (stereo partly specified)
- MIC (Staphylococcus aureus [1]): < 0.098 µg/mL
- MIC (Enterococcus faecalis): < 0.098 µg/mL
- MIC (Staphylococcus aureus [2]): 1.56 µg/mL (≈ 3.32 µM)

SMILES: C[C@H]1c2ccc(-c3ccc(N)cc3)c(O)c2C(=O)C2=C(O)[C@]3(O)C(O)=C(C(N)=O)C(=O)[C@@H](N(C)C)C3[C@@H](O)C21 (stereo partly specified)
- MIC (Staphylococcus aureus [1]): 1.56 µg/mL (≈ 2.91 µM)
- MIC (Enterococcus faecalis): 3.12 µg/mL (≈ 5.83 µM)
- MIC (Staphylococcus aureus [2]): 3.12 µg/mL (≈ 5.83 µM)

SMILES: C#Cc1ccc2c(c1O)C(=O)C1=C(O)[C@]3(O)C(O)=C(C(N)=O)C(=O)[C@@H](N(C)C)C3[C@@H](O)C1[C@H]2C (stereo partly specified)
- MIC (Staphylococcus aureus [1]): 0.39 µg/mL (≈ 0.833 µM)
- MIC (Enterococcus faecalis): 0.78 µg/mL (≈ 1.67 µM)
- MIC (Staphylococcus aureus [2]): 1.56 µg/mL (≈ 3.33 µM)

SMILES: C[C@H]1c2ccc(-c3ccccc3)c(O)c2C(=O)C2=C(O)[C@]3(O)C(O)=C(C(N)=O)C(=O)[C@@H](N(C)C)C3[C@@H](O)C21 (stereo partly specified)
- MIC (Staphylococcus aureus [1]): 0.78 µg/mL (≈ 1.5 µM)
- MIC (Enterococcus faecalis): 1.56 µg/mL (≈ 3 µM)
- MIC (Staphylococcus aureus [2]): 3.12 µg/mL (≈ 5.99 µM)

SMILES: C[C@H]1c2cccc(O)c2C(=O)C2=C(O)[C@]3(O)C(=O)C(C(N)=O)=C(O)[C@@H](N(C)C)[C@@H]3[C@@H](O)[C@@H]21.O [DOXYCYCLINE]
- MIC (Staphylococcus aureus [1]): 6.25 µg/mL
- MIC (Enterococcus faecalis): 6.25 µg/mL
- MIC (Staphylococcus aureus [2]): > 50 µg/mL

SMILES: CN(C)c1ccc(O)c2c1C[C@H]1C[C@H]3[C@H](N(C)C)C(O)=C(C(N)=O)C(=O)[C@@]3(O)C(O)=C1C2=O [MINOCYCLINE]
- MIC (Staphylococcus aureus [1]): 6.25 µg/mL (≈ 13.7 µM)
- MIC (Enterococcus faecalis): < 0.098 µg/mL
- MIC (Staphylococcus aureus [2]): 3.12 µg/mL (≈ 6.82 µM)
